The term IC50 denotes the concentration that gives 50% inhibition.

Data on five molecules can be found in article PMC4581724 (Analytical biochemistry, 2015).

Experiment [1] deals with Y72W CrAS3MT. It counts as binding, Chlamydomonas reinhardtii.
Experiment [2] addresses T1, CrAS3MT (Chlamydomonas reinhardtii, UniProt K0BVM7).
T1 sequence (K0BVM7 1-379): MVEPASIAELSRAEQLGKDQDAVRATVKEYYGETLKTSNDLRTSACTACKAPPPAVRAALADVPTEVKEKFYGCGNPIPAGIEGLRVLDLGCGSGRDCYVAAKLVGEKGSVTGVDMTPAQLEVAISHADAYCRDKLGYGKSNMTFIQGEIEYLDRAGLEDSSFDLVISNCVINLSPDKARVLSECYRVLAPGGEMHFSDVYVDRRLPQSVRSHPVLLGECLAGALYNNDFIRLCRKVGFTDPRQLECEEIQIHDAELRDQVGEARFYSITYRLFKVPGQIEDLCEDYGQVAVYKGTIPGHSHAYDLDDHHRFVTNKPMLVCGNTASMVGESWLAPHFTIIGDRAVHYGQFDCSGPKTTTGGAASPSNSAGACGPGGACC
Put plainly: biochemical. It counts as biochemical.

Experiment [3] has as its target T1, CrAS3MT. It counts as biochemical.
Experiment [4] concerns SAM methyltransferases. Particulars: read-out: IC50 for SAM methyltransferases; cited from earlier work.

Like-named read-outs stand apart in the source and are kept apart here.

Consider `CSS(C)(=O)=O` [MMTS, methylmethanethiosulfonate], for which, in experiment [1], the “effect on quenching of Y72W by As(III)” value is “significant reduction in quenching”, the “effect on the fluorescence of Y72W (quenching)” value is “quenched” and the “protein fluorescence quenching at 20 μM MMTS” value was “not substantially quenched”. Moreover, the 50% inhibitory concentration (IC50) in experiment [2] (read-out: IC50 for inhibition of SAH production (half-maximal inhibition)) is 43 µM.

`CCN1C(=O)C=CC1=O` [NEM, N-ethylmaleimide] registered an IC50 in experiment [2] of 140 µM. Also, the “effect on arsenic methylation” value in experiment [3] was “completely inhibited”.

As for `[Sb+3]` [Sb(III)], in experiment [1], the “effect on the fluorescence of Y72W (quenching)” value is “most quenching at the lowest concentration”.

For `Nc1ncnc2c1ncn2[C@@H]1O[C@H](CC(N)CCC(N)C(=O)O)[C@@H](O)[C@H]1O` (stereo partly shown) [sinefungin, 5′-deoxy-5′-(1,4-diamino-4-carboxybutyl)adenosine], in experiment [1], the “effect on As(III)-induced fluorescence quenching” value was “no effect” and the “quenching of Y72W fluorescence by sinefungin” value was “did not quench”. Besides, the IC50 in experiment [2] is 0.5 µM. In addition, the “effect on formation of DMAs(V)” value in experiment [3] is “significantly inhibited”. Besides, in experiment [4], the IC50 is 0.1 to 20 µM.

As for arsenite [As(III)], the “As(III) concentration at which activity could be detected” value in experiment [2] is recorded as 10^−8 molar.
